According to patent US6476252B1, “Flavorant compositions” (Givaudan Roure (International) SA, priority 1997, dated 2002):

How the values were obtained:
oral cavity = assay: Expert panel evaluation in foods, beverages and consumer healthcare products; assay type: in vivo, human; conditions: for character of mayonnaise base / character of sour cream / character of vegetable dip: 500 ppm compound; for character of toothpaste base: peppermint flavored toothpaste base; for character of sour cream: regular fat sour cream; for character of vegetable dip: vegetable soup mix with regular fat sour cream
Procedure: Mouthwash base was prepared by mixing 0.08 parts mouthwash flavor (commercially available from Givaudan Roure Flavors Ltd.), 0.5 parts Pluronic F-127, 0.5 parts polysorbate 20, 0.35 parts sodium lauryl sulfate, 5 parts glycerine, 0.015 parts sodium saccharin and 93.555 parts water. […] Toothpaste base (Opaque 13/02-5F) was flavored with peppermint flavor (Givaudan Roure peppermint flavor 10570-34) at 0.5% by weight. […] Mayonnaise base was prepared by mixing 59.8 parts whole egg, 24 parts vinegar (white, 5% acidity), 1.3 parts mustard, 2 parts sugar, 1 part salt and 219 parts vegetable oil. […] An onion dip was prepared by mixing a commercial package of onion soup mix (Lipton) with plain, regular fat sour cream and 1000 ppm of compound 9 as described and prepared according to example 9. […] 2.5 parts Maltrin M-10 (commercially available) was mixed with 0.05 parts pizza flavor (SNE Pizza Flavor 810841). 50 parts potato chips ([…]) were placed on a paper plate then microwaved for 30-60 seconds until surface oil glistened. […] A chewing gum was prepared according to methods known to those skilled in the art.

fungi = conditions: A. M. Janssen et al., Planta Medica 1985; cited from earlier work
[1] = S. Mitsui et al., Chem. Pharm. Bull. (1976); cited from earlier work
xanthin oxidase = conditions: T. Noro et al., Chem. Pharm. Bull. (1988); cited from earlier work
tumor = conditions: H. Itokawa et al., Planta Medica (1987); cited from earlier work
Epstein-Barr virus = conditions: A. Kondo et al., Biosci. Biotech. Biochem. (1993); cited from earlier work

C=CC(OC(=O)CC)c1ccc(OC(=O)CC)cc1 (racemic) [Compound 4, (rac)-propionic acid 1-(4-propionoxy-phenyl)-allyl ester]
sensation imparted by mouthwash base (oral cavity; 100 ppm compound): warm/hot, spicy and pungent sensation

C=CCC(OC(C)=O)c1ccc(OC(C)=O)cc1 (racemic) [Compound 9, (rac)-acetic acid 1-(4-acetoxyphenyl)-3-butenyl ester]
character of mayonnaise base (oral cavity): warm/hot, spicy and pungent character
sensation imparted by mouthwash base (oral cavity; 100 ppm compound): warm/hot, spicy and pungent sensation
character of onion dip (oral cavity; onion soup mix with regular fat sour cream, 1000 ppm compound): warm/hot, peppery and pungent character without a lingering effect
character of toothpaste base (oral cavity; 100 ppm compound): warm/hot, spicy and pungent character
character of sour cream (oral cavity): warm/hot, spicy and pungent character without a lingering effect
character of vegetable dip (oral cavity): warm/hot, peppery and pungent character without any lingering effect

CCC(OC(C)=O)c1ccc(OC(C)=O)c(OC)c1 (racemic) [Compound 7, (rac)-acetic acid 1-(4-acetoxy-3-methoxy-phenyl)-propyl ester]
flavor of cordial base (oral cavity; 50 Proof cordial base with cinnamon flavor 0.2% by weight, 100 ppm compound): enhanced warm /hot, pungent flavor
character of mayonnaise base (oral cavity): warm/hot, spicy and pungent character
sensation imparted by mouthwash base (oral cavity; 100 ppm compound): warm/hot, spicy and pungent sensation
character of toothpaste base (oral cavity; 100 ppm compound): warm/hot, spicy and pungent character
character of sour cream (oral cavity): warm/hot, spicy and pungent character without a lingering effect
character of vegetable dip (oral cavity): warm/hot, peppery and pungent character without any lingering effect

C=CC(OC(=O)C(C)C)c1ccc(OC(=O)C(C)C)cc1 (racemic) [Compound 5, (rac)-isobutyric acid 1-(4-isobutyryloxy-phenyl)-allyl ester]
sensation imparted by mouthwash base (oral cavity; 100 ppm compound): warm/hot, spicy and pungent sensation

CCC(OC(C)=O)c1ccc(OC(C)=O)cc1 (racemic) [Compound 6, (rac-)-acetic acid 1-(4-acetoxy-phenyl)-propyl ester]
character of mayonnaise base (oral cavity): warm/hot, spicy and pungent character
sensation imparted by mouthwash base (oral cavity; 100 ppm compound): warm/hot, spicy and pungent sensation
character of toothpaste base (oral cavity; 100 ppm compound): warm/hot, spicy and pungent character
character of pizza snack (potato chips) (oral cavity; potato chips with pizza flavor, dusted with 1000 ppm compound): warm/hot, peppery and pungent character
character of sour cream (oral cavity): warm/hot, spicy and pungent character without a lingering effect
character of vegetable dip (oral cavity): warm/hot, peppery and pungent character without any lingering effect

C=CC(OC(C)=O)c1ccc(OC(C)=O)cc1 (racemic) [Compound 1, (rac)-acetic acid 1-(4-acetoxy-phenyl)-allyl ester]
character of mayonnaise base (oral cavity): warm/hot, spicy and pungent character
sensation imparted by mouthwash base (oral cavity; 100 ppm compound): warm/hot, spicy and pungent sensation
character of toothpaste base (oral cavity; 100 ppm compound): warm/hot, spicy and pungent character
character of sour cream (oral cavity): warm/hot, spicy and pungent character without a lingering effect
character of vegetable dip (oral cavity): warm/hot, peppery and pungent character without any lingering effect
anti-fungal activity (fungi): anti-fungal activity
anti-ulcer activity [1]: anti-ulcer activity
inhibition of xanthin oxidase (xanthin oxidase): inhibit xanthin oxidase
anti-tumor activity (tumor): anti-tumor activity
inhibition of tumor promoter-induced Epstein-Barr virus activation (Epstein-Barr virus): potent inhibitor

C=CC(OC(C)=O)c1ccc(OC(C)=O)c(OC)c1 (racemic) [Compound 2, (rac)-acetic acid 1-(4-acetoxy-3-methoxphenyl)-allyl ester]
character of orange flavored chewing gum (oral cavity; chewing gum, 1 g compound in the batch): warm/hot, peppery and pungent character, again without any lingering effect
anti-fungal activity (fungi): anti-fungal activity
inhibition of xanthin oxidase (xanthin oxidase): inhibit xanthin oxidase
anti-tumor activity (tumor): anti-tumor activity

C=CC(OC(=O)CC)c1ccc(OC(=O)CC)c(OC)c1 (racemic) [Compound 3, (rac)-propionic acid 1-(4-propionoxy-3-methoxyphenyl)-allyl ester]
sensation imparted by mouthwash base (oral cavity; 100 ppm compound): warm/hot, spicy and pungent sensation
